Measurements as given in patent publication US6355799B1, “Substituted benzene compounds, process for their preparation, and herbicidal and defoliant compositions containing them” (ISK Americas Incorporated, priority 1997, dated 2002).

Assays:
Format in all cases: in vivo
[1] = tested on: redroot pigweed (Amaranthus retroflexus, AMARE); test: Pre-emerge test, greenhouse herbicide activity screening; details: for phytotoxicity rating AMARE: pre-emerge, 14 days after application, scale 0-100; for Pre-emerge Herbicidal Activity AMARE: phytotoxicity rating 0-100, 14 days after application
How it was run: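 Visual ratings on a 0-100 scale (0 no damage, 100 all plants dead) were taken at 14 days after treatment. Rates of 15-1000 g ai/ha in acetone, 187 l/ha, were sprayed onto soil one day after planting (pre-emerge) or onto 2-3 leaf plants with 0.25% v/v surfactant (post-emerge).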

[2] = tested on: barnyardgrass (Echinochloa crus-galli, ECHCG); test: as above; details: for phytotoxicity rating ECHCG: pre-emerge, 14 days after application, scale 0-100; for Pre-emerge Herbicidal Activity ECHCG: phytotoxicity rating 0-100, 14 days after application
How it was run: (§1)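 Herbicidal damage is scored 0 (none) to 100 (complete plant death) two weeks after a simulated field spray. Rates span 15–1000 g ai/ha, delivered in acetone at 187 l/ha. For post-emergence treatments, plants have 2–3 leaves and the spray carries 0.25% v/v non-ionic surfactant.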

[3] = tested on: green foxtail (Setaria viridis, SETVI); test: as above; details: for phytotoxicity rating SETVI: pre-emerge, 14 days after application, scale 0-100; for Pre-emerge Herbicidal Activity SETVI: phytotoxicity rating 0-100, 14 days after application
How it was run: as §1

[4] = tested on: ivyleaf morningglory (Ipomoea hederacea, IPOHE); test: as above; details: for phytotoxicity rating IPOHE: pre-emerge, 14 days after application, scale 0-100; for Pre-emerge Herbicidal Activity IPOHE: phytotoxicity rating 0-100, 14 days after application
How it was run: as §1

[5] = tested on: johnsongrass (Sorghum halepense, SORHA); test: as above; details: for phytotoxicity rating SORHA: pre-emerge, 14 days after application, scale 0-100; for Pre-emerge Herbicidal Activity SORHA: phytotoxicity rating 0-100, 14 days after application
How it was run: as §1

[6] = tested on: lambsquarters (Chenopodium album, CHEAL); test: as above; details: for phytotoxicity rating CHEAL: pre-emerge, 14 days after application, scale 0-100; for Pre-emerge Herbicidal Activity CHEAL: phytotoxicity rating 0-100, 14 days after application
How it was run: as §1

[7] = tested on: large crabgrass (Digitaria sanguinalis, DIGSA); test: as above; details: for phytotoxicity rating DIGSA: pre-emerge, 14 days after application, scale 0-100; for Pre-emerge Herbicidal Activity DIGSA: phytotoxicity rating 0-100, 14 days after application
How it was run: as §1

[8] = tested on: sicklepod (Cassia obtusifolia, CASOB); test: as above; details: for phytotoxicity rating CASOB: pre-emerge, 14 days after application, scale 0-100; for Pre-emerge Herbicidal Activity CASOB: phytotoxicity rating 0-100, 14 days after application
How it was run: as §1

[9] = tested on: velvetleaf (Abutilon theophrasti, ABUTH); test: as above; details: for phytotoxicity rating ABUTH: pre-emerge, 14 days after application, scale 0-100; for Pre-emerge Herbicidal Activity ABUTH: phytotoxicity rating 0-100, 14 days after application
How it was run: as §1

[10] = tested on: field corn (Zea mays L., var. Dekalb 535, CORN); test: Pre-emerge test, crop safety; details: for phytotoxicity rating CORN (crop damage): pre-emerge, 14 days after application, scale 0-100; for Pre-emerge Herbicidal Activity CORN: crop damage rating 0-100, 14 days after application
How it was run: (§2)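 Applied at 15–1000 g ai/ha from acetone in 187 l/ha spray volume. Post-emergence applications included 0.25% v/v non-ionic surfactant and reached plants sown 8–21 days before. Pre-emergence applications were incorporated by surface watering. Efficacy or crop damage was rated on a 0–100 scale after 14 days.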

[11] = tested on: upland rice (Oryza sp., var. Tebonnet, RICE); test: Pre-emerge test, crop safety; details: for phytotoxicity rating RICE (crop damage): pre-emerge, 14 days after application, scale 0-100; for Pre-emerge Herbicidal Activity RICE: crop damage rating 0-100, 14 days after application
How it was run: as §2

[12] = tested on: barnyardgrass (Echinochloa crus-galli, ECHCG); test: Post-emerge test, greenhouse herbicide activity screening; details: post-emerge, 14 days after application, rating scale 0-100
How it was run: (§3)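 Compounds in acetone were track-sprayed at 187 l/ha, 15–1000 g ai/ha, onto sandy loam pots. Pre-emerge seeds were sown one day before spraying, with surface watering afterwards. Post-emerge plants were at the 2–3 leaf stage and sprayed with 0.25% v/v non-ionic surfactant. Injury was rated 0–100 at 14 days.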

[13] = tested on: green foxtail (Setaria viridis, SETVI); test: as above; details: post-emerge, 14 days after application, rating scale 0-100
How it was run: as §3

[14] = tested on: ivyleaf morningglory (Ipomoea hederacea, IPOHE); test: as above; details: post-emerge, 14 days after application, rating scale 0-100
How it was run: as §3

[15] = tested on: lambsquarters (Chenopodium album, CHEAL); test: as above; details: post-emerge, 14 days after application, rating scale 0-100
How it was run: as §3

[16] = tested on: large crabgrass (Digitaria sanguinalis, DIGSA); test: as above; details: post-emerge, 14 days after application, rating scale 0-100
How it was run: as §3

[17] = tested on: redroot pigweed (Amaranthus retroflexus, AMARE); test: as above; details: post-emerge, 14 days after application
How it was run: as §3

[18] = tested on: sicklepod (Cassia obtusifolia, CASOB); test: as above; details: post-emerge, 14 days after application, rating scale 0-100
How it was run: as §3

[19] = tested on: velvetleaf (Abutilon theophrasti, ABUTH); test: as above; details: post-emerge, 14 days after application, rating scale 0-100
How it was run: as §3

[20] = tested on: field corn (Zea mays L., var. Dekalb 535, CORN); test: Post-emerge test, crop safety; details: post-emerge, 14 days after application, rating scale 0-100
How it was run: as §1

[21] = tested on: upland rice (Oryza sp., var. Tebonnet, RICE); test: Post-emerge test, crop safety; details: post-emerge, 14 days after application, rating scale 0-100
How it was run: as §1

[22] = 250 g ai/ha, rating scale 0-100

COc1c(Cl)cc(F)c(-n2c(=O)cc(C(F)(F)F)n(C)c2=O)c1NC(=O)CCc1cc(C)ccc1C [2-132]
phytotoxicity rating AMARE ([1]; 63 g ai/ha): 100
phytotoxicity rating AMARE ([1]; 250 g ai/ha): 100
phytotoxicity rating ECHCG ([2]; 63 g ai/ha): 30
phytotoxicity rating ECHCG ([2]; 250 g ai/ha): 40
phytotoxicity rating SETVI ([3]; 63 g ai/ha): 90
phytotoxicity rating SETVI ([3]; 250 g ai/ha): 100
phytotoxicity rating IPOHE ([4]; 63 g ai/ha): 20
phytotoxicity rating IPOHE ([4]; 250 g ai/ha): 40
phytotoxicity rating SORHA ([5]; 63 g ai/ha): 30
phytotoxicity rating SORHA ([5]; 250 g ai/ha): 50
phytotoxicity rating CHEAL ([6]; 63 g ai/ha): 100
phytotoxicity rating CHEAL ([6]; 250 g ai/ha): 100
phytotoxicity rating DIGSA ([7]; 63 g ai/ha): 60
phytotoxicity rating DIGSA ([7]; 250 g ai/ha): 100
phytotoxicity rating CASOB ([8]; 63 g ai/ha): 50
phytotoxicity rating CASOB ([8]; 250 g ai/ha): 100
phytotoxicity rating ABUTH ([9]; 63 g ai/ha): 100
phytotoxicity rating ABUTH ([9]; 250 g ai/ha): 100
phytotoxicity rating CORN (crop damage) ([10]; 63 g ai/ha): 5
phytotoxicity rating CORN (crop damage) ([10]; 250 g ai/ha): 15
phytotoxicity rating RICE (crop damage) ([11]; 63 g ai/ha): 15
phytotoxicity rating RICE (crop damage) ([11]; 250 g ai/ha): 45
ECHCG phytotoxicity rating ([12]; 63 g ai/ha): 20
ECHCG phytotoxicity rating ([12]; 250 g ai/ha): 40
SETVI phytotoxicity rating ([13]; 63 g ai/ha): 40
SETVI phytotoxicity rating ([13]; 250 g ai/ha): 60
IPOHE phytotoxicity rating ([14]; 63 g ai/ha): 100
IPOHE phytotoxicity rating ([14]; 250 g ai/ha): 100
CHEAL phytotoxicity rating ([15]; 63 g ai/ha): 100
CHEAL phytotoxicity rating ([15]; 250 g ai/ha): 100
DIGSA phytotoxicity rating ([16]; 63 g ai/ha): 10
DIGSA phytotoxicity rating ([16]; 250 g ai/ha): 25
AMARE phytotoxicity rating ([17]; 63 g ai/ha, rating scale 0-100): 100
AMARE phytotoxicity rating [17, 22]: 100
CASOB phytotoxicity rating ([18]; 63 g ai/ha): 100
CASOB phytotoxicity rating ([18]; 250 g ai/ha): 99
ABUTH phytotoxicity rating ([19]; 63 g ai/ha): 100
ABUTH phytotoxicity rating ([19]; 250 g ai/ha): 100
CORN phytotoxicity rating (crop damage) ([20]; 63 g ai/ha): 60
CORN phytotoxicity rating (crop damage) ([20]; 250 g ai/ha): 75
RICE phytotoxicity rating (crop damage) ([21]; 63 g ai/ha): 50
RICE phytotoxicity rating (crop damage) ([21]; 250 g ai/ha): 80

COc1c(Cl)cc(F)c(-n2c(=O)cc(C(F)(F)F)n(C)c2=O)c1NC(=O)OCc1c(F)c(F)c(F)c(F)c1F [4-48]
Pre-emerge Herbicidal Activity AMARE ([1]; 63 g ai/ha): 100
Pre-emerge Herbicidal Activity AMARE ([1]; 250 g ai/ha): 100
Pre-emerge Herbicidal Activity ECHCG ([2]; 63 g ai/ha): 50
Pre-emerge Herbicidal Activity ECHCG ([2]; 250 g ai/ha): 70
Pre-emerge Herbicidal Activity SETVI ([3]; 63 g ai/ha): 100
Pre-emerge Herbicidal Activity SETVI ([3]; 250 g ai/ha): 100
Pre-emerge Herbicidal Activity IPOHE ([4]; 63 g ai/ha): 80
Pre-emerge Herbicidal Activity IPOHE ([4]; 250 g ai/ha): 100
Pre-emerge Herbicidal Activity SORHA ([5]; 63 g ai/ha): 60
Pre-emerge Herbicidal Activity SORHA ([5]; 250 g ai/ha): 90
Pre-emerge Herbicidal Activity CHEAL ([6]; 63 g ai/ha): 100
Pre-emerge Herbicidal Activity CHEAL ([6]; 250 g ai/ha): 100
Pre-emerge Herbicidal Activity DIGSA ([7]; 63 g ai/ha): 100
Pre-emerge Herbicidal Activity DIGSA ([7]; 250 g ai/ha): 100
Pre-emerge Herbicidal Activity CASOB ([8]; 63 g ai/ha): 40
Pre-emerge Herbicidal Activity CASOB ([8]; 250 g ai/ha): 100
Pre-emerge Herbicidal Activity ABUTH ([9]; 63 g ai/ha): 100
Pre-emerge Herbicidal Activity ABUTH ([9]; 250 g ai/ha): 100
Pre-emerge Herbicidal Activity CORN ([10]; 63 g ai/ha): 30
Pre-emerge Herbicidal Activity CORN ([10]; 250 g ai/ha): 50
Pre-emerge Herbicidal Activity RICE ([11]; 63 g ai/ha): 20
Pre-emerge Herbicidal Activity RICE ([11]; 250 g ai/ha): 70
phytotoxicity rating ECHCG ([12]; 63 g ai/ha): 20
phytotoxicity rating ECHCG ([12]; 250 g ai/ha): 80
phytotoxicity rating SETVI ([13]; 63 g ai/ha): 30
phytotoxicity rating SETVI ([13]; 250 g ai/ha): 40
phytotoxicity rating IPOHE ([14]; 63 g ai/ha): 100
phytotoxicity rating IPOHE ([14]; 250 g ai/ha): 100
phytotoxicity rating CHEAL ([15]; 63 g ai/ha): 100
phytotoxicity rating CHEAL ([15]; 250 g ai/ha): 100
phytotoxicity rating DIGSA ([16]; 63 g ai/ha): 20
phytotoxicity rating DIGSA ([16]; 250 g ai/ha): 40
phytotoxicity rating AMARE ([17]; 63 g ai/ha, rating scale 0-100 (0 no damage, 100 complete death)): 100
phytotoxicity rating AMARE [17, 22]: 100
phytotoxicity rating CASOB ([18]; 63 g ai/ha): 95
phytotoxicity rating CASOB ([18]; 250 g ai/ha): 100
phytotoxicity rating ABUTH ([19]; 63 g ai/ha): 100
phytotoxicity rating ABUTH ([19]; 250 g ai/ha): 100
phytotoxicity rating CORN (crop damage) ([20]; 63 g ai/ha): 90
phytotoxicity rating CORN (crop damage) ([20]; 250 g ai/ha): 90
phytotoxicity rating RICE (crop damage) ([21]; 63 g ai/ha): 80
phytotoxicity rating RICE (crop damage) ([21]; 250 g ai/ha): 80
